Reference: patent US11292788B2, “IL-17 and IFN-gamma inhibition for the treatment of autoimmune diseases and chronic inflammation” (Immunic AG, priority 2017, dated 2022)
Where two headings read alike, the source gives them in different places.

How the values were obtained:
IL-17A = experiment: Cytokine assay: IL-17A production by human PBMC stimulated with PHA; type: cell-based; conditions: IC50 class, read-out: IL-17A Inhib.
Method in brief: (§1)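 Human donor PBMC (1×10^5 cells/well) were activated with 2 μg/ml PHA and exposed to compounds for 48 h. Supernatant IL-17A, IL-17F and IFN-γ were measured by Luminex or ELISA. Screening used 10, 1, 0.1 and 0.01 μM; IC50 values came from semilogarithmic titrations.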

IL-17F = experiment: Cytokine assay: IL-17F production by human PBMC stimulated with PHA; type: cell-based; conditions: IC50 class, read-out: IL-17F Inhib.
Method in brief: as §1

INF-γ = experiment: Cytokine assay: INF-γ production by human PBMC stimulated with PHA; type: cell-based; conditions: IC50 class, read-out: IFN-gamma Inhib.
Method in brief: as §1

[1] = Microsomal stability: incubation with human liver microsomes, residual parent compound by HPLC-MS/MS; type: in vitro ADME; conditions: human liver microsomes 0.5 mg/ml, compound 1 μM, pH 7.4, 37° C., up to 60 min; read-out: t1/2 hLM
Experimental: Metabolic stability of compounds of the present invention was determined by incubation with human liver microsomes and subsequent determination of residual amount of the respective compound (“parent compound”) by HPLC-MS/MS.
In order to achieve this, in a final reaction volume of 1000 μl, each compound was incubated at a final concentration of 1 μM with 0.5 mg/ml human liver microsomes (HLM Pool 50 Donors, 20 mg/ml, BD Gentest, #452156, LotNr 88114) in 0.1 M Potassium phosphate buffer at pH 7.4, with a cofactor in form of a NADPH regenerating system (Promega, #V9510) according to the manufacturers' specifications. The final DMSO concentration in each sample was 0.4%. The incubation was performed at 37° C. under shaking conditions (Thermomixer, 1400 rpm) for different time intervals up to 60 min. To stop the reaction, for each time point 200 μl of the reaction were taken out and 200 μl ice-cold acetonitrile was added. Then, the samples were centrifuged (4° C., 14000*g for 15 min). The supernatant was analyzed for residual parent compound concentration and scanned for metabolites using HPLC-MS/MS. By using optimized MS methods for each compound, the peak area under curve for the compound specific signal is determined. The change of the peak areas over the assay time of 60 min resemble the remaining parent compound in % of T0. By these points, a balancing line was set. The half-time, as well as the clearance, can then be calculated on the basis of the slope.

IC50 (IL-17A; Homo sapiens, PBMC) [nM]	IC50 (IL-17F; Homo sapiens, PBMC) [nM]	IC50 (INF-γ; Homo sapiens, PBMC) [nM]	half-life at 1 μM [1] [min]	IC50 (IL-17A) [nM]	IC50 (IL-17F) [nM]	IC50 (INF-γ) [nM]	SMILES
< 50	< 50	< 50	10 to 40	–	–	–	CCC(O)Cn1ncc(-c2onc(-c3c(F)cccc3Cl)c2-c2nccs2)c1C(F)(F)F (racemic) [Example 6, 1-{4-[3-(2-chloro-6-fluorophenyl)-4-(1,3-thiazol-2-yl)-1,2-oxazol-5-yl]-5-(trifluoromethyl)-1H-pyrazol-1-yl}butan-2-ol]
< 50	< 50	< 50	10 to 40	–	–	–	OC(Cn1ncc(-c2onc(-c3c(F)cccc3Cl)c2-c2nccs2)c1C(F)(F)F)C(F)(F)F (racemic) [Example 7, 3-{4-[3-(2-chloro-6-fluorophenyl)-4-(1,3-thiazol-2-yl)-1,2-oxazol-5-yl]-5-(trifluoromethyl)-1H-pyrazol-1-yl}-1,1,1-trifluoropropan-2-ol]
< 50	< 50	< 50	> 100	–	–	–	CC(C)(O)CCn1ncc(-c2onc(-c3c(F)cccc3Cl)c2-c2nccs2)c1C(F)(F)F [Example 3, 4-(4-(3-(2-chloro-6-fluorophenyl)-4-(thiazol-2-yl)isoxazol-5-yl)-5-(trifluoromethyl)-1H-pyrazol-1-yl)-2-methylbutan-2-ol]
< 50	< 50	< 50	10 to 40	–	–	–	C[C@@H](O)Cn1ncc(-c2onc(-c3c(F)cccc3Cl)c2-c2nccs2)c1C(F)(F)F [Example 4, (2R)-1-(4-(3-(2-chloro-6-fluorophenyl)-4-(thiazol-2-yl)isoxazol-5-yl)-5-(trifluoromethyl)-1H-pyrazol-1-yl)propan-2-ol]
< 50	50 to 500	< 50	40 to 100	–	–	–	C[C@H](O)Cn1ncc(-c2onc(-c3c(F)cccc3Cl)c2-c2nccs2)c1C(F)(F)F [Example 5, (2S)-1-(4-(3-(2-chloro-6-fluorophenyl)-4-(thiazol-2-yl)isoxazol-5-yl)-5-(trifluoromethyl)-1H-pyrazol-1-yl)propan-2-ol]
< 50	< 50	< 50	2 to 9.99	–	–	–	CCOC(=O)c1c(-c2c(F)cccc2Cl)noc1-c1cnn(C[C@@H](O)C(F)(F)F)c1C(F)(F)F [Example 16, ethyl 3-(2-chloro-6-fluorophenyl)-5-{1-[(2R)-3,3,3-trifluoro-2-hydroxypropyl]-5-(trifluoromethyl)-1H-pyrazol-4-yl}-1,2-oxazole-4-carboxylate]
–	–	–	> 100	50 to 500	< 50	< 50	COC(=O)c1c(-c2ccccc2Cl)noc1-c1cnn([C@H]2C[C@](C)(O)C2)c1C [Example 18, methyl 3-(2-chlorophenyl)-5-(1-(3-hydroxy-3-methylcyclobutyl)-5-methyl-1H-pyrazol-4-yl)isoxazole-4-carboxylate]
< 50	50 to 500	< 50	> 100	–	–	–	COC(=O)c1c(-c2ccccc2Cl)noc1-c1cnn(CCC(C)(C)O)c1C [Example 19, methyl 3-(2-chlorophenyl)-5-[1-(3-hydroxy-3-methylbutyl)-5-methyl-1H-pyrazol-4-yl]-1,2-oxazole-4-carboxylate]
50 to 500	50 to 500	< 50	10 to 40	–	–	–	COC(=O)c1c(-c2c(F)cccc2Cl)noc1-c1cnn(C[C@H](C)O)c1C(F)(F)F [Example 23, methyl (S)-3-(2-chloro-6-fluorophenyl)-5-(1-(2-hydroxypropyl)-5-(trifluoromethyl)-1H-pyrazol-4-yl)isoxazole-4-carboxylate]
< 50	< 50	< 50	> 100	–	–	–	COC(=O)c1c(-c2cccc(OC)c2Cl)noc1-c1cnn(CCC(C)(C)O)c1C [Example 25, methyl 3-(2-chloro-3-methoxyphenyl)-5-[1-(3-hydroxy-3-methylbutyl)-5-methyl-1H-pyrazol-4-yl]-1,2-oxazole-4-carboxylate]
–	–	< 50	> 100	< 50	< 50	–	Cc1c(-c2onc(-c3ccccc3Cl)c2C(=O)OC2CC2)cnn1[C@H]1C[C@@](C)(O)C1 [Example 53, cyclopropyl 3-(2-chlorophenyl)-5-{5-methyl-1-[3-hydroxy-3-methylcyclobutyl]-1H-pyrazol-4-yl}-1,2-oxazole-4-carboxylate]
< 50	< 50	< 50	40 to 100	–	–	–	CC(C)(O)Cn1ncc(-c2onc(-c3c(F)cccc3Cl)c2C(=O)OC2CC2)c1C(F)(F)F [Example 55, cyclopropyl 3-(2-chloro-6-fluorophenyl)-5-[1-(2-hydroxy-2-methylpropyl)-5-(trifluoromethyl)-1H-pyrazol-4-yl]-1,2-oxazole-4-carboxylate]
50 to 500	< 50	< 50	40 to 100	–	–	–	C[C@@H](O)Cn1ncc(-c2onc(-c3c(F)cccc3Cl)c2C(=O)OC2COC2)c1C(F)(F)F [Example 58, oxetan-3-yl 3-(2-chloro-6-fluorophenyl)-5-{1-[(2R)-2-hydroxypropyl]-5-(trifluoromethyl)-1H-pyrazol-4-yl}-1,2-oxazole-4-carboxylate]
500 to 5000	500 to 5000	50 to 500	–	–	–	–	C[C@@H](O)Cn1ncc(-c2onc(-c3cccc(C(=O)NC4CC4)c3Cl)c2-c2ccncn2)c1C(F)(F)F [Example 159, (R)-2-chloro-N-cyclopropyl-3-(5-(1-(2-hydroxypropyl)-5-(trifluoromethyl)-1H-pyrazol-4-yl)-4-(pyrimidin-4-yl)isoxazol-3-yl)benzamide]
≥ 5000	≥ 5000	500 to 5000	–	–	–	–	COc1c(C(=O)NC2CC2)cccc1-c1noc(-c2cnn(C[C@@H](C)O)c2C(F)(F)F)c1-c1ccncn1 [Example 161, (R)—N-cyclopropyl-3-(5-(1-(2-hydroxypropyl)-5-(trifluoromethyl)-1H-pyrazol-4-yl)-4-(pyrimidin-4-yl)isoxazol-3-yl)-2-methoxybenzamide]
500 to 5000	≥ 5000	50 to 500	–	–	–	–	COc1c(C(=O)NC(C)C)cccc1-c1noc(-c2cnn(C[C@@H](C)O)c2C(F)(F)F)c1-c1ccncn1 [Example 162, (R)-3-(5-(1-(2-hydroxypropyl)-5-(trifluoromethyl)-1H-pyrazol-4-yl)-4-(pyrimidin-4-yl)isoxazol-3-yl)-N-isopropyl-2-methoxybenzamide]
≥ 5000	≥ 5000	500 to 5000	–	–	–	–	COc1c(C(=O)N2CCC2)cccc1-c1noc(-c2cnn(C[C@@H](C)O)c2C(F)(F)F)c1-c1ccncn1 [Example 163, (R)-(azetidin-1-yl)(3-(5-(1-(2-hydroxypropyl)-5-(trifluoromethyl)-1H-pyrazol-4-yl)-4-(pyrimidin-4-yl)isoxazol-3-yl)-2-methoxyphenyl)methanone]
500 to 5000	500 to 5000	500 to 5000	–	–	–	–	COc1c(C(=O)NC2CCC2)cccc1-c1noc(-c2cnn(C[C@@H](C)O)c2C(F)(F)F)c1-c1ccncn1 [Example 164, (R)—N-cyclobutyl-3-(5-(1-(2-hydroxypropyl)-5-(trifluoromethyl)-1H-pyrazol-4-yl)-4-(pyrimidin-4-yl)isoxazol-3-yl)-2-methoxybenzamide]
500 to 5000	≥ 5000	500 to 5000	–	–	–	–	CCNC(=O)c1cccc(-c2noc(-c3cnn(C[C@@H](C)O)c3C(F)(F)F)c2-c2ccncn2)c1OC [Example 165, (R)—N-ethyl-3-(5-(1-(2-hydroxypropyl)-5-(trifluoromethyl)-1H-pyrazol-4-yl)-4-(pyrimidin-4-yl)isoxazol-3-yl)-2-methoxybenzamide]
500 to 5000	≥ 5000	500 to 5000	–	–	–	–	C[C@@H](O)Cn1ncc(-c2onc(-c3cccc(C(=O)NC4CCC4)c3)c2-c2ccncn2)c1C(F)(F)F [Example 166, (R)—N-cyclobutyl-3-(5-(1-(2-hydroxypropyl)-5-(trifluoromethyl)-1H-pyrazol-4-yl)-4-(pyrimidin-4-yl)isoxazol-3-yl)benzamide]
≥ 5000	≥ 5000	500 to 5000	–	–	–	–	CC(C)NC(=O)c1cccc(-c2noc(-c3cnn(C[C@@H](C)O)c3C(F)(F)F)c2-c2ccncn2)c1 [Example 167, (R)-3-(5-(1-(2-hydroxypropyl)-5-(trifluoromethyl)-1H-pyrazol-4-yl)-4-(pyrimidin-4-yl)isoxazol-3-yl)-N-isopropylbenzamide]
